# Entries after “also recorded” stand apart in the source; their conditions may differ.
# Target: interaction of gp96 and AIMP1 (Mus musculus, UniProt P08113)
# Experiment: ELISA assay of gp96-AIMP1 interaction
# Assay type: binding, murine
# Details: read-out: Inhibition rate (at 100 nM; %)
# Description: FIGS. 1 to 9 represent suppression of cell surface gp96 by GPM1 reduces DC maturation and B220^+ population in gp96tm transgenic mice. (FIG. 1) Chemical structure of GPM1 (Formula 2) and negative control (NC1, Formula 16) used in this study. (FIG. 2) The dose-dependent effect of GPM1 or NC1 on the AIMP1-gp96 interaction using ELISA method as described. The indicated concentrations of the two compounds and biotin-conjugated murine gp96 were added to AIMP1 coated on the surface of microtiter wells, and gp96 bound to AIMP1 was detected with strepavidin-conjugated peroxidase. (FIG. 3) The binding of GPM1 to gp96 was examined by surface plasmon resonance (SPR). GPM1 at the indicated concentrations was injected to immobilized gp96 and the binding was measured using Biacore 3000. The response data were processed using data from a reference surface and buffer injections. Each concentration was tested in triplicate. (FIG. 4) RAW24.7 cells were treated with 10 μM GPM1 for 24 h. Cell lysates were immunoprecipitated with control IgG or anti-gp96 antibody and the immunoprecipitated proteins were immunoblotted with anti-KDELR1, antiAIMP1 and gp96 antibodies. WCL means whole cell lysate. (FIG. 5) Splenocytes isolated from C57BL/6 mice were treated with vehicle (5% DMSO in PBS), GPM1, or NC1 (10 μM, 24 h), stained for cell surface gp96, and followed by flow cytometry. (FIG. 6) AIMP1^+/+ or AIMP1^−/− mouse splenocytes (2×10^5 cells) were treated with vehicle, GPM1, or NC1 (10 μM, 24 h), fixed, and then co-cultured with WT bone marrow-derived DCs (1×10^4 cells) for 16 h. TNFα secreted from BMDCs was quantified by ELISA. (FIG. 7) Percentage of gp96^+ MHC class II^+ cell population in splenocytes from gp96tm transgenic female mice treated with vehicle (control) (n=9), GPM1 (n=9), and dexamethasone (n=7) at 30 mg/kg. (FIG. 8) Cell surface ICOSL of CD11b^+CD11c^+ (myeloid DCs), CD11b^−CD11c^+ (lymphoid DCs), and CD11b^+CD11c^− (macrophages) cell populations in splenocytes from gp96tm transgenic female mice treated with vehicle (n=9) and GPM1 (n=9) at 30 mg/kg. (FIG. 9) Percentage of B220^+, MHC class II^+, CD4^+, CD8^+, CD4 and CD8 double negative cell populations in splenocytes from gp96tm transgenic female mice treated with vehicle (n=9), GPM1 (n=9), and dexamethasone (n=7) at 30 mg/kg. Student t-test P values comparing GPM1-treated mice with control are indicated.
# 96-well plates (Maxisorp., F96; Nunc) were coated with 500 ng/well AIMP1 in PBS (pH 7.4). After washing, the remaining sites were blocked with PBS containing 1% BSA for 1 h. Binding of 10 ng/well biotin-conjugated gp96 was performed in Tris buffer (25 mM Tris, 10 mM NaCl and 0.4% Triton X-100). Each of the 6,580 compounds was added to the well at 100 nM and the plates were washed and incubated with HRP conjugated streptavidin in PBS containing 0.1% BSA and 0.1% Tween 20 for 30 min. The plates were washed, and then substrate was added to each well. The absorbance was monitored at 450 nm.
# To identify chemicals that can affect membrane translocation of gp96, the present inventors employed the interaction of gp96 with AIMP1 as the screening target. For this screening, the present inventors chose 6,482 chemicals with different pharmacophore representing 150,000 different chemicals deposited in Korea Chemical Bank and identified the compounds that can inhibit the interaction of the two proteins. For the screening, the present inventors set up a modified ELISA method using recombinant AIMP1 and gp96 proteins as described in Experimental methods. Each of the tested compounds gave different effect on the interaction of the two proteins (FIG. 19). And the present inventors have selected 12 compounds that inhibited the interaction more than 95% of the control at 0.1 μM (Table 1). The present inventors obtained 1251 additional compounds derived from these 12 initial hits and tested them again for their activities against the gp96-AIMP1 interaction.
# Sequence of interaction of gp96 and AIMP1 (P08113 22-802): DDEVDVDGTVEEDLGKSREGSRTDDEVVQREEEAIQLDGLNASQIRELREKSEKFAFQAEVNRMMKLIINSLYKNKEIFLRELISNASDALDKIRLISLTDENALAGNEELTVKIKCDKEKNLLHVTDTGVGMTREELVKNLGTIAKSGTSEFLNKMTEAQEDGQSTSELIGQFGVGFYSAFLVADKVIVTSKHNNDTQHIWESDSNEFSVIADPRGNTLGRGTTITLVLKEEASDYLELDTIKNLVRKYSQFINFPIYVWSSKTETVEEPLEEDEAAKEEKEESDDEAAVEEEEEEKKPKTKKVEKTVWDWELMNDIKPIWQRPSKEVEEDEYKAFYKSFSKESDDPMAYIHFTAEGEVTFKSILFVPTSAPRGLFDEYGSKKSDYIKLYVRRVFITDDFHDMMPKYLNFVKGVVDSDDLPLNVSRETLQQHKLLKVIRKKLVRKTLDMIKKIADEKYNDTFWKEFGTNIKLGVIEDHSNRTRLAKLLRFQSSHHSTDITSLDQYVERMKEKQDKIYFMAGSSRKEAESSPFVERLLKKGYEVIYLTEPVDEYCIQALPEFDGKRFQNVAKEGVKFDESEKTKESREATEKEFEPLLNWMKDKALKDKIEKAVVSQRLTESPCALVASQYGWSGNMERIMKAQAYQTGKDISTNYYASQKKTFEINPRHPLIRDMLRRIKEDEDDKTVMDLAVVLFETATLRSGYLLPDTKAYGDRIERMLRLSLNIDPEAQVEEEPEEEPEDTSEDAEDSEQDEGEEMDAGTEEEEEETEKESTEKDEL
row,Compound,inhibition at 0.1 µM [%]
1,"CC(C)(C)Oc1cc(OC(C)(C)C)nc(Oc2cccnc2)n1 [Formula 12, 4,6-di-tert-butoxy-2-(pyridin-3-yloxy)pyrimidine]",86
2,"CC(C)(C)Oc1ncc(-c2ccccn2)c(OC(C)(C)C)n1 [Formula 13, 2,4-di-tert-butoxy-5-(pyridin-2-yl)pyrimidine]",86

# Next, values leading:
row,inhibition at 0.1 µM [%],Compound
1,97,"COC(=O)C(C)Oc1nc(C)c(Cl)c(OC)n1 (stereo not drawn) [Formula 3, methyl 2-(5-chloro-4-methoxy-6-methylpyrimidin-2-yloxy)propanoate]"
2,94,"COC(=O)C(Oc1nc(OC)cc(OC)n1)c1ccc(Br)cc1 (stereo not drawn) [Formula 4, methyl 2-(4-bromophenyl)-2-(4,6-dimethoxypyrimidin-2-yloxy)acetate]"
3,82,"COC(=O)C(Oc1nc(OC)cc(OC)n1)C(C)C (stereo not drawn) [Formula 5, methyl 2-(4,6-dimethoxypyrimidin-2-yloxy)-3-methylbutanoate]"
4,71,"COC(=O)C(Oc1nc(OC)cc(OC)n1)c1cccs1 (stereo not drawn) [Formula 6, methyl 2-(4,6-dimethoxypyrimidin-2-yloxy)-2-(thiophen-2-yl)acetate]"
5,99,"COc1cc(OC)nc(OC(C(=O)O)c2ccccc2)n1 (stereo not drawn) [Formula 7, 2-(4,6-dimethoxypyrimidin-2-yloxy)-2-phenylacetic acid]"
6,30,"COc1cc(OC)nc(O[C@@H](C(=O)O)c2ccccc2)n1 [Formula 8, (R)-2-(4,6-dimethoxypyrimidin-2-yloxy)-2-phenylacetic acid]"
7,90,"COc1nc(OCc2ccccc2)nc(OC)c1C(N)=O [Formula 9, 2-(benzyloxy)-4,6-dimethoxypyrimidine-5-carboxamide]"
8,76,"COc1cc(OC)nc(OCc2ccccc2Cl)n1 [Formula 10, 2-(2-chlorobenzyloxy)-4,6-dimethoxypyrimidine]"
9,95,"COc1cc(OC)nc(Oc2ccncc2)n1 [Formula 11, 4,6-dimethoxy-2-(pyridin-4-yloxy)pyrimidine]"
10,84,"Oc1nc(Oc2ccc(F)c(C(F)(F)F)c2)cc(Oc2ccc(F)c(C(F)(F)F)c2)n1 [Formula 14, 4,6-bis(4-fluoro-3-(trifluoromethyl)phenoxy)pyrimidin-2-ol]"
11,54,"COc1cc(OC)nc(Oc2cccnc2N)n1 [Formula 15, 3-(4,6-dimethoxypyrimidin-2-yloxy)pyridin-2-amine]"

# Tested on: gp96tm transgenic mice
# Experiment: not given
# Details: 2-month intraperitoneal administration, 30 mg/kg
# Description: Female gp96tm transgenic mice (Proc Natl Acad Sci USA. 2003 December 23; 100(26): 15824-15829) were bred and maintained at the animal center for pharmaceutical research, Seoul National University. We used age-matched, 12-26 weeks old mice in each experimental group. To suppress cell surface gp96 we used GPM1 compound. Dexamethasone and GPM1 were dissolved in 5% DMSO in phosphate-buffered saline (PBS) and control vehicle was 5% DMSO in PBS. Compounds were administered i.p. every 24 h for 2 months (30 mg/kg/day). Three groups of each 9 mice were examined. All procedures were conducted in accordance with the Guide for the Care and Use of Laboratory Animals, published by the Korean National Institute of Health.
# Spleen and lymph node cell suspensions were prepared by grindling tissue through sterile mesh and erythrocytes were lysed with RBC lysis buffer (eBioscience, CA). For surface staining, antibodies were fluoresceinisothiocyanate (FITC)-, phycoerythrin (PE)-, PerCP-, or APC-conjugated. Antibodies used were CD4 (RM4-5, H129.12), CD8 (53-6,7), B220 (RA3-6B2), CD11b (M1/70), CD11c (HL3), CD44 (IM7), CD62L (MEL-14), CD69 (H1.2F3), CD25 (PC61.5), IgM (11/41), IgD (11-26C.2a) (BD Pharmingen, CA), MHC class II (M5/114.15.2), Foxp3 (FJK-16s) (eBioscience, CA), and gp96 (Santacruz, Calif.). After staining, cells were washed and analyzed on a FACS can flow cytometer using CellQuest software (BD Bioscience, Mountain View, Calif.).
# Kidney tissue sections of gp96tm transgenic mice were fixed in 10% formaldehyde in PBS and dehydrated using an alcohol gradient. After paraffin infiltration, the tissues were sectioned using a microtome, stained with hematoxylin and eosin (H&E) and analyzed by light microscopy. For immunofluorescent staining, kidneys were sectioned with a cryostat. These cryosections were blocked with normal goat serum, stained with FITC-conjugated goat anti-mouse Ig (BD pharmingen, CA), and then observed by fluorescent microscopy.
# The present inventors compared the effect of GPM1 with phosphate-buffered saline containing 5% DMSO and dexamethasone (Dex), an immunosuppressant of glucocorticoid family as negative and positive control, respectively. Each group consisted of age-matched nine female mice. […] After 2 month, the present inventors isolated MHC class II^+ splenocytes and lymph nodes from vehicle-, Dex-, and GPM1-treated mice and determined the portion of gp96^+ cells by flow cytometry.
row,Compound,adverse effects / death during administration
1,"C[C@@H]1C[C@H]2[C@@H]3CCC4=CC(=O)C=C[C@]4(C)[C@@]3(F)[C@@H](O)C[C@]2(C)[C@@]1(O)C(=O)CO [dexamethasone, reference compound]",two of nine

# Same assay, conditions: mouse, in vivo, 30 mg/kg/day
row,Compound,total cell count (spleen)
1,"C[C@@H]1C[C@H]2[C@@H]3CCC4=CC(=O)C=C[C@]4(C)[C@@]3(F)[C@@H](O)C[C@]2(C)[C@@]1(O)C(=O)CO [dexamethasone, reference compound]",4.80 ± 2.38 × 10^5

# Same assay, conditions: splenocytes, after 2 month, 30 mg/kg
row,Compound,percentages of gp96+ MHC class II+ cells [%]
1,"C[C@@H]1C[C@H]2[C@@H]3CCC4=CC(=O)C=C[C@]4(C)[C@@]3(F)[C@@H](O)C[C@]2(C)[C@@]1(O)C(=O)CO [dexamethasone, reference compound]",~25

# Tested on: HL-60 cell lines
# Experiment: FACS analysis of gp96 on cell surface of HL-60 cell lines
# Assay type: cell-based
# Details: 1 mM, 24 hours
# Description: FIG. 35 is a graph showing an FACS analysis result using gp96 antibody, on the amount of gp96 protein existing on a cell surface, when HL-60 cell lines were treated with a 2,4-pyrimidine derivatives at a concentration of 1 mM for 24 hours.
# Also, HL-60 cell lines were treated with a 2,4-pyrimidine derivative at a concentration of 1 mM for 24 hours, and the amount of gp96 protein existing on a cell surface was analyzed through flow cytometry (FACS) using gp96 antibody.
row,Compound,amount of gp96 protein existing on a cell surface
1,"2-(4,6-dimethoxy-pyrimidin-2-yloxy)-N-isopropyl-3-methyl-butyl amide [KR-S-005]",better effects than KR-S-015; also recorded: better than ester (KR-S-010) or acid (KR-S-009)
2,"CCN(CC)C(=O)C(Oc1nc(OC)cc(OC)n1)C(C)C (stereo not drawn) [KR-S-001, 2-(4,6-Dimethoxy-pyrimidin-2-yloxy)-N,N-diethyl-3-methyl-butyl amide]",better effects than KR-S-015; also recorded: better than ester (KR-S-010) or acid (KR-S-009)
3,"COc1cc(OC)nc(OC(C(=O)N(C)OC)C(C)C)n1 (stereo not drawn) [KR-S-006, 2-(4,6-dimethoxy-pyrimidin-2-yloxy)-N-methoxy-3,N-dimethyl-butyl amide]",better effects than KR-S-015; also recorded: better than ester (KR-S-010) or acid (KR-S-009)
4,"COc1cc(OC)nc(OC(C(=O)N2CCCCC2)C(C)C)n1 (stereo not drawn) [KR-S-007, 2-(4,6-dimethoxy-pyrimidin-2-yloxy)-3-methyl-1-piperidin-1-yl-butan-1-one]",better effects than KR-S-015; also recorded: better than ester (KR-S-010) or acid (KR-S-009)
5,"COc1cc(OC)nc(OC(C(=O)N2CCOCC2)C(C)C)n1 (stereo not drawn) [KR-S-008, 2-(4,6-dimethoxy-pyrimidin-2-yloxy)-3-methyl-1-morpholin-4-yl-butan-1-one]",better effects than KR-S-015; also recorded: better than ester (KR-S-010) or acid (KR-S-009)
6,"COc1cc(OC)nc(OC(C(=O)O)C(C)C)n1 (stereo not drawn) [KR-S-009, 2-(4,6-dimethoxy-pyrimidin-2-yloxy)-3-methyl-butyric acid]",better effects than KR-S-015
7,"COC(=O)[C@H](C)Oc1nc(OC)cc(OC)n1 [KR-S-011, L-2-(4,6-Dimethoxy-pyrimidin-2-yloxy)-propionic acid methyl ester]","better effects than KR-S-015; also recorded: better than isopropyl (KR-S-009, KR-S-010)"
8,"COC(=O)[C@@H](C)Oc1nc(OC)cc(OC)n1 [KR-S-012, D-2-(4,6-Dimethoxy-pyrimidin-2-yloxy)-propionic acid methyl ester]","better effects than KR-S-015; also recorded: better than isopropyl (KR-S-009, KR-S-010)"
